One data set has as its system PC3 cells. As to the kind of experiment: EB1 Comet (microtubule disruption) assay. It counts as cell-based, human. Particulars: for minimal effective concentration: Homo sapiens, read-out: EB1 pLAC (converted). The method in brief:
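Readout is loss of Eb1 plus-end foci, scored by immunofluorescence microscopy, in PC3 cells after 1 h compound treatment at 37 °C with 0.6% final DMSO. LAC is defined as the lowest concentration leaving at least 50% of cells without Eb1 foci.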

The subject of another data set is tubulin. The data set is described as follows: Tubulin polymerization assay. Particulars: tested at 20 μM and 5 μM. It counts as biochemical. More on the design: key: a compound showing 0 to 50% inhibition at 20 μM is reported as score 1; Score 2 compounds are defined as compound showing more than 50% inhibition at 20 μM and less than 50% inhibition at 5 μM; a compound showing more than 50% inhibition at 5 μM is reported as score 3. The method in brief:
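Cytoskeleton kit tubulin was run in a 10 µl final volume at 37 °C, with fluorescence read every minute for 1 h. Polymerization was taken as the maximum slope (4-point linear regression) and expressed as % of no-compound control. Compounds were tested at 20 µM, then at 5 µM if inhibition exceeded 50%, and scored by % inhibition.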

Where two headings read alike, the source gives them in different places.

By melting point is commonly meant the temperature, or range, at which the solid turns liquid.

For the compound `Cc1cc2ccc(C(C)(C#N)Cc3cc4ccccc4[nH]3)cc2[nH]c1=O` (stereo not drawn) [Compound 234], the melting point is above 260 °C. Besides, in the data set on PC3 cells (PC-3, 1 h, 1 hour treatment), the minimal effective concentration is above 10 µM. Take `CCc1cc2ccc(C(C)(C#N)Cc3cc(Cl)cc4c3OCOC4)cc2[nH]c1=O` (stereo not drawn) [Compound 90]: the minimal effective concentration in the data set with PC3 cells (PC-3, 1 h, 1 hour treatment) was 1 µM. The compound `CCc1cc2ccc(C(C)(C#N)Cc3cccc(COC)c3)cc2[nH]c1=O` (stereo not drawn) [Compound 8] showed a melting point of 122 °C. The minimal effective concentration in the data set on PC3 cells (PC-3, 1 h, 1 hour treatment) was 0.316 µM. In turn, `CCc1cc2ccc(C(C)(C#N)Cc3cccc(CO)c3)cc2[nH]c1=O` (stereo not drawn) [Compound 9] had a melting point of 182 °C. In the data set with PC3 cells (PC-3, 1 h, 1 hour treatment), the minimal effective concentration is 1 µM. As to `CCc1cc2ccc(C(C)(C#N)Cc3cc4c(cc3Cl)OCO4)cc2[nH]c1=O` (stereo not drawn) [Compound 91], in the data set with PC3 cells (PC-3, 1 h, 1 hour treatment), the minimal effective concentration was 0.1 µM.

Take `CCc1cc2ccc(C(C#N)(Cc3ccccc3)CC3CC3)cc2[nH]c1=O` (stereo not drawn) [Compound 28]: the melting point was 212 °C. On to `CCc1cc2ccc(C(C)(C#N)CCOc3ccc4c(c3)OCO4)cc2[nH]c1=O` (stereo not drawn) [Compound 279], for which the minimal effective concentration with PC3 cells (PC-3, 1 h, 1 hour treatment) was 1 µM. On the same count and under the same terms, under `CCc1cc2ccc(C(C)(C#N)Cc3ccccc3OC(F)(F)F)cc2[nH]c1=O` (stereo not drawn) [Compound 102] stands 3.16 µM. In the case of `CCc1cc2ccc([C@](C)(C#N)Cc3nc(OC)cc(OC)n3)cc2[nH]c1=O` (single isomer, unassigned) [Compound 52], the melting point was 178 °C. In addition, in the data set on PC3 cells (PC-3, 1 h, 1 hour treatment), the minimal effective concentration was 3.16 µM. In addition, in the data set on tubulin, the tubulin polymerisation score is on record as 1 (a compound showing 0 to 50% inhibition at 20 μM is reported as score 1). In the case of `CCc1cc2ccc(C(C)(C#N)Cc3ccncc3)cc2[nH]c1=O` (stereo not drawn) [Compound 98], the tubulin polymerisation score with tubulin is given as 1 (a compound showing 0 to 50% inhibition at 20 μM is reported as score 1). For the compound `CCc1cc2ccc(C(C)(C#N)Cc3ccc4nccnc4c3)cc2[nH]c1=O` (stereo not drawn) [Compound 87], the minimal effective concentration with PC3 cells (PC-3, 1 h, 1 hour treatment) is 3.16 µM. On the same count and under the same terms, the figure for `Cc1cc2ccc(C(C)(C#N)Cc3ccc(Cl)s3)cc2[nH]c1=O` (stereo not drawn) [Compound 72] is 0.316 µM; for `CCc1cc2ccc(C(C)(C#N)Cc3cc(OC)cc(OC)c3)cc2[nH]c1=O` (stereo not drawn) [Compound 332] it is 0.316 µM. On to `CCc1cc2ccc(C(C)(C#N)CC3COc4ccccc4O3)cc2[nH]c1=O` (single isomer, unassigned) [Compound 47], for which the melting point came to 176 °C. In the case of `CCc1cc2ccc(C(C)(C#N)Cc3ccccc3C#N)cc2[nH]c1=O` (stereo not drawn) [Compound 101], the minimal effective concentration with PC3 cells (PC-3, 1 h, 1 hour treatment) was 1 µM. Consider `CCc1cc2ccc(C(C)(C#N)Cc3nn(C)c4ccccc34)cc2[nH]c1=O` (stereo not drawn) [Compound 95], for which the tubulin polymerisation score in the data set on tubulin is reported as 2.

Turning to `CCOP(=O)(OCC)c1cccc(CC(C)(C#N)c2ccc3cc(CC)c(=O)[nH]c3c2)c1` (stereo not drawn) [Compound 50], the melting point is 80 °C. Further, in the data set with PC3 cells (PC-3, 1 hour treatment), the minimal effective concentration was 0.316 µM. Take `Cc1cc2ccc(C(C)(C#N)Cc3ccc(C(F)(F)F)o3)cc2[nH]c1=O` (stereo not drawn) [Compound 73]: the minimal effective concentration with PC3 cells (PC-3, 1 h, 1 hour treatment) is 1 µM. Regarding `Cc1cc2ccc(C(C)(C#N)Cc3ccccc3)cc2[nH]c1=O` (stereo not drawn) [Compound 76], the minimal effective concentration with PC3 cells (PC-3, 1 h, 1 hour treatment) was 1 µM. On the same count and under the same terms, under `CCc1cc2ccc(C(C)(C#N)Cc3ccc(OC)c(C#N)c3)cc2[nH]c1=O` (stereo not drawn) [Compound 77] stands 1 µM; under `CCc1cc2ccc(C(C)(C#N)Cc3cccc(CN(C)C)c3)cc2[nH]c1=O` (stereo not drawn) [Compound 7], 3.16 µM. For `CCc1cc2ccc(C(C)(C#N)Cc3ccccc3C(F)(F)F)cc2[nH]c1=O` (stereo not drawn) [Compound 103], the minimal effective concentration in the data set with PC3 cells (PC-3, 1 h, 1 hour treatment) was 0.316 µM.

For `CCc1cc2ccc(C(C)(C#N)Cc3cccc(N4CCN(C)CC4)c3)cc2[nH]c1=O` (stereo not drawn) [Compound 66], the tubulin polymerisation score with tubulin is reported as 1 (a compound showing 0 to 50% inhibition at 20 μM is reported as score 1). Still for that read-out and setting: the figure for `CCc1cc2ccc(C(C)(C#N)CCOc3ccccc3C#N)cc2[nH]c1=O` (stereo not drawn) [Compound 276] is 1 (a compound showing 0 to 50% inhibition at 20 μM is reported as score 1).

Regarding `CCc1cc2ccc(C(C)(C#N)Cc3cc(Cl)ccc3Cl)cc2[nH]c1=O` (stereo not drawn) [Compound 99], the minimal effective concentration in the data set with PC3 cells (PC-3, 1 h, 1 hour treatment) was 0.1 µM. In addition, the tubulin polymerisation score in the data set with tubulin is on record as 3 (a compound showing more than 50% inhibition at 5 μM is reported as score 3). On to `CCc1cc2ccc(C(C)(C#N)Cc3cccc(OCC4CC4)c3)cc2[nH]c1=O` (stereo not drawn) [Compound 67], for which the minimal effective concentration in the data set on PC3 cells (PC-3, 1 h, 1 hour treatment) was 0.316 µM. As for `Cc1cc2ccc(C(C)(C#N)Cc3cc4ccccc4s3)cc2[nH]c1=O` (stereo not drawn) [Compound 71], in the data set with PC3 cells (PC-3, 1 h, 1 hour treatment), the minimal effective concentration is 1 µM. For the compound `Cc1cc2ccc(C(C)(C#N)Cc3cccc4cccnc34)cc2[nH]c1=O` (stereo not drawn) [Compound 74], the minimal effective concentration in the data set on PC3 cells (PC-3, 1 h, 1 hour treatment) was 3.16 µM. Turning to `CCc1cc2ccc(C(C)(C#N)Cc3ccc(F)c(C#N)c3)cc2[nH]c1=O` (stereo not drawn) [Compound 267], the minimal effective concentration with PC3 cells (PC-3, 1 h, 1 hour treatment) was 0.1 µM. This compound came in with a tubulin polymerisation score in the data set with tubulin of 2. Turning to `CCc1cc2ccc(C(C)(C#N)CCOc3ccccc3F)cc2[nH]c1=O` (stereo not drawn) [Compound 278], the minimal effective concentration in the data set on PC3 cells (PC-3, 1 h, 1 hour treatment) was 1 µM.

In the case of `CCc1cc2ccc(C(C)(C#N)Cc3cccc(CNC)c3)cc2[nH]c1=O` (stereo not drawn) [Compound 59], the minimal effective concentration in the data set on PC3 cells (PC-3, 1 h, 1 hour treatment) is 10 µM. As to `CCc1cc2ccc(C(C)(C#N)Cc3ccc(C)c(F)c3F)cc2[nH]c1=O` (stereo not drawn) [Compound 83], in the data set on PC3 cells (PC-3, 1 h, 1 hour treatment), the minimal effective concentration was 1 µM. With `CCc1cc2ccc(C(C)(C#N)Cc3cc(Cl)ccc3OC)cc2[nH]c1=O` (stereo not drawn) [Compound 80], in the data set with PC3 cells (PC-3, 1 h, 1 hour treatment), the minimal effective concentration was 0.1 µM.

Consider `CCc1cc2ccc(C(C)(C#N)Cc3cc(Cl)cc4c3OCOC4)cc2[nH]c1=O` (stereo not drawn) [Compound 92], for which the “EB1 pLAC” value in the data set on PC3 cells (1 hour treatment) is on record as 6.

With `CCc1cc2ccc(C(C)(C#N)Cc3c(F)ccc(C)c3F)cc2[nH]c1=O` (stereo not drawn) [Compound 41], the melting point amounted to 190 °C. In addition, the minimal effective concentration in the data set on PC3 cells (PC-3, 1 h, 1 hour treatment) was 0.316 µM.

For the compound `CCc1cc2ccc(C(C)(C#N)Cc3nc4ccccc4o3)cc2[nH]c1=O` (stereo not drawn) [Compound 85], the minimal effective concentration with PC3 cells (PC-3, 1 h, 1 hour treatment) is 0.316 µM. Moreover, the tubulin polymerisation score in the data set on tubulin is 1 (a compound showing 0 to 50% inhibition at 20 μM is reported as score 1). For `CCc1cc2ccc(C(C)(C#N)Cc3cccc(Br)c3C)cc2[nH]c1=O` (stereo not drawn) [Compound 81], the minimal effective concentration in the data set with PC3 cells (PC-3, 1 h, 1 hour treatment) is 0.316 µM. On the same count and under the same terms, the figure for `CCc1cc2ccc(C(C)(C#N)Cc3cccc(C(=O)N(C)C)c3)cc2[nH]c1=O` (stereo not drawn) [Compound 63] is 3.16 µM. Take `Cc1cc2ccc(C(C)(C#N)Cc3nc4ccccc4s3)cc2[nH]c1=O` (stereo not drawn) [Compound 75]: in the data set on PC3 cells (PC-3, 1 h, 1 hour treatment), the minimal effective concentration was 0.316 µM. Moreover, in the data set on tubulin, the tubulin polymerisation score is given as 1 (a compound showing 0 to 50% inhibition at 20 μM is reported as score 1). `CC(C#N)(Cc1ccccc1)c1ccc2cc(CO)c(=O)[nH]c2c1` (stereo not drawn) [Compound 40] yielded a melting point of 176 °C. As to `CCc1cc2ccc(C(C)(C#N)Cc3c(C)cccc3C)cc2[nH]c1=O` (stereo not drawn) [Compound 84], the minimal effective concentration in the data set on PC3 cells (PC-3, 1 h, 1 hour treatment) is 1 µM. On to `CCc1cc2ccc(C(C)(C#N)Cc3cn4ccccc4n3)cc2[nH]c1=O` (stereo not drawn) [Compound 96], for which the tubulin polymerisation score with tubulin is listed as 1 (a compound showing 0 to 50% inhibition at 20 μM is reported as score 1). As for `CCc1cc2ccc(C(C)(C#N)Cc3csc(C)n3)cc2[nH]c1=O` (stereo not drawn) [Compound 86], in the data set on PC3 cells (PC-3, 1 h, 1 hour treatment), the minimal effective concentration was 3.16 µM. On to `CCc1cc2ccc(C(C)(C#N)Cc3cccc(C#C[Si](C)(C)C)c3)cc2[nH]c1=O` (stereo not drawn) [Compound 1], for which the melting point worked out at 178 °C. In addition, the minimal effective concentration in the data set on PC3 cells (PC-3, 1 h, 1 hour treatment) was 1 µM.

On to `Cc1cc2ccc(C(C)(C#N)Cc3noc(-c4cccc(C(F)(F)F)c4)n3)cc2[nH]c1=O` (stereo not drawn) [Compound 70], for which the minimal effective concentration in the data set on PC3 cells (PC-3, 1 h, 1 hour treatment) was 3.16 µM.

In turn, `CCc1cc2ccc(C(C)(C#N)Cc3cccc(Br)c3)cc2[nH]c1=O` (stereo not drawn) [Compound 49] yielded a melting point of 186 °C. Besides, the minimal effective concentration with PC3 cells (PC-3, 1 h, 1 hour treatment) is 0.316 µM. The corresponding values for `CCc1cc2ccc(C(C)(C#N)Cc3cccc(C#N)c3)cc2[nH]c1=O` (stereo not drawn) [Compound 51] are 192 °C and 0.316 µM. In turn, `CCc1cc2ccc(C(C)(C#N)Cc3ccccc3)cc2[nH]c1=O` (stereo not drawn) [Compound 44] showed a melting point of 168 °C. `CCc1cc2ccc([C@](C)(C#N)Cc3ccccc3)cc2[nH]c1=O` (single isomer, unassigned) [Compound 45] showed a melting point of 162 °C. Besides, the minimal effective concentration with PC3 cells (PC-3, 1 h, 1 hour treatment) is above 10 µM. Regarding `CCc1cc2ccc(C(C)(C#N)CCOc3cc(Cl)c(Cl)cc3Cl)cc2[nH]c1=O` (stereo not drawn) [Compound 277], the tubulin polymerisation score in the data set with tubulin is listed as 2.

Consider `CCc1cc2ccc(C(C)(C#N)Cc3nc(OC)cc(OC)n3)cc2[nH]c1=O` (stereo not drawn) [Compound 43], for which the melting point was found to be 90 °C. As for `CCc1cc2ccc(C(C)(C#N)Cc3cc(C)ccc3C)cc2[nH]c1=O` (stereo not drawn) [Compound 78], the minimal effective concentration in the data set with PC3 cells (PC-3, 1 h, 1 hour treatment) was 0.1 µM. Turning to `CCc1cc2ccc(C(C)(C#N)CCOc3ccc([N+](=O)[O-])cc3)cc2[nH]c1=O` (stereo not drawn) [Compound 54], the melting point came out at 216 °C. Further, in the data set on PC3 cells (PC-3, 1 h, 1 hour treatment), the minimal effective concentration was 0.316 µM. `CCc1cc2ccc(C(C)(C#N)Cc3cccc(CN4CCOCC4)c3)cc2[nH]c1=O` (stereo not drawn) [Compound 58]: the minimal effective concentration in the data set on PC3 cells (PC-3, 1 h, 1 hour treatment) is 3.16 µM.

`CCc1cc2ccc(C(C)(C#N)Cc3ccc(F)c(C)c3)cc2[nH]c1=O` (stereo not drawn) [Compound 79]: the minimal effective concentration with PC3 cells (PC-3, 1 h, 1 hour treatment) is 1 µM. Consider `CCc1cc2ccc(C(C)(C#N)Cc3ccc(Cl)c(C(F)(F)F)c3)cc2[nH]c1=O` (stereo not drawn) [Compound 82], for which, in the data set on PC3 cells (PC-3, 1 h, 1 hour treatment), the minimal effective concentration was 1 µM.

The values above are taken from patent publication US8778966B2, “Quinolinone derivatives as PARP and tank inhibitors” (Janssen Pharmaceutica, NV, priority 2007, dated 2014).
